Experiments:
[1] = system: STEME; test: Pre-emergence action against STEME; format: in vivo, Stellaria media; details: Dosage 320 g/ha, pre-emergence
From the text: (§1) Seeds of monocotyledonous and dicotyledonous weed plants and crop plants are laid out in sandy loam soil in wood-fiber pots and covered with soil. The compounds of the invention, formulated in the form of wettable powders (WP) or as emulsion concentrates (EC), are then applied to the surface of the covering soil in the form of an aqueous suspension or emulsion at a water application rate equating to […], with addition of 0.2% wetting agent. After the treatment, the pots are placed in a greenhouse and kept under good growth conditions for the trial plants. The damage to the test plants is scored visually after a test period of 3 weeks by comparison with untreated controls (herbicidal activity in percent (%): 100% activity=the plants have died, 0% activity=like control plants).

[2] = system: AMARE; test: Pre-emergence action against AMARE; format: in vivo, Amaranthus retroflexus; details: pre-emergence, dosage 320 g/ha, scored visually after 3 weeks vs untreated controls
From the text: as §1

[3] = system: ABUTH; test: Pre-emergence action against ABUTH; format: in vivo, Abutilon theophrasti; details: pre-emergence, dosage 320 g/ha, scored visually after 3 weeks vs untreated controls
From the text: as §1

[4] = system: VERPE; test: Post-emergence action against VERPE; format: in vivo, Veronica persica; details: Veronica persica, 504 h, dosage 80 g/ha
Method: (§2) Seeds of monocotyledonous and dicotyledonous weed and crop plants are laid out in sandy loam soil in wood-fiber pots, covered with soil and cultivated in a greenhouse under good growth conditions. 2 to 3 weeks after sowing, the test plants are treated at the one-leaf stage. The compounds of the invention, formulated in the form of wettable powders (WP) or as emulsion concentrates (EC), are then sprayed onto the green parts of the plants in the form of an aqueous suspension or emulsion at a water application rate equating to […], with addition of 0.2% wetting agent. After the test plants have been left to stand in the greenhouse under optimal growth conditions for about 3 weeks, the action of the preparations is assessed visually in comparison to untreated controls (herbicidal action in percent (%): 100% activity=the plants have died, 0% activity=like control plants). […] At the same time, inventive compounds leave Gramineae crops such as barley, wheat, rye, millet/Sorghum, corn or rice virtually undamaged when applied post-emergence, even at high active ingredient dosages. In addition, some substances are also harmless to dicotyledonous crops such as soya, cotton, oilseed rape, sugar beet or potatoes. Some of the compounds according to the invention have high selectivity and are therefore suitable for controlling unwanted vegetation in agricultural crops by the post-emergence method. The data of Tables B18 to B34 below illustrate, in an exemplary manner, the […] herbicidal action of the compounds according to the invention, the herbicidal activity being stated in percent.

[5] = system: AMARE; test: Post-emergence action against AMARE; format: in vivo, Amaranthus retroflexus; details: post-emergence, dosage 80 g/ha, visual assessment about 3 weeks after treatment vs untreated controls; for pest or weed control at 80 g/ha: Amaranthus retroflexus, 504 h, read-out: Post-emergence action against AMARE (herbicidal action in percent)
Method: as §2

[6] = system: ABUTH; test: Post-emergence action against ABUTH; format: in vivo, Abutilon theophrasti; details: post-emergence, dosage 80 g/ha, visual assessment about 3 weeks after treatment vs untreated controls
Method: as §2

[7] = system: VERPE; test: Pre-emergence action against VERPE; format: in vivo, Veronica persica; details: Dosage 320 g/ha, pre-emergence
From the text: as §1

[8] = system: STEME; test: Post-emergence action against STEME; format: in vivo, Stellaria media; details: post-emergence, dosage 80 g/ha
Method: as §2

[9] = system: VIOTR; test: Post-emergence action against VIOTR; format: in vivo, Viola tricolor; details: post-emergence, dosage 80 g/ha
Method: as §2

[10] = system: PHBPU; test: Post-emergence action against PHBPU; format: in vivo, Pharbitis purpurea; details: post-emergence, dosage 80 g/ha
Method: as §2

[11] = system: VIOTR; test: Pre-emergence action against VIOTR; format: in vivo, Viola tricolor; details: Dosage 320 g/ha, pre-emergence
From the text: as §1

[12] = system: SETVI; test: Pre-emergence action against SETVI; format: in vivo, Setaria viridis; details: pre-emergence, dosage 320 g/ha, scored visually after 3 weeks vs untreated controls
From the text: as §1

[13] = system: MATIN; test: Post-emergence action against MATIN; format: in vivo, Matricaria inodora; details: post-emergence, dosage 80 g/ha, visual assessment about 3 weeks after treatment vs untreated controls
Method: as §2

[14] = system: ALOMY; test: Pre-emergence action against ALOMY; format: in vivo, Alopecurus myosuroides; details: dosage 320 g/ha; pre-emergence; scored visually after 3 weeks vs untreated controls; 100% = plants have died, 0% = like control plants
From the text: as §1

[15] = system: ECHCG; test: Pre-emergence action against ECHCG; format: in vivo, Echinochloa crus-galli; details: pre-emergence, dosage 320 g/ha, scored visually after 3 weeks vs untreated controls
From the text: as §1

[16] = system: MATIN; test: Pre-emergence action against MATIN; format: in vivo, Matricaria inodora; details: Dosage 320 g/ha, pre-emergence
From the text: as §1

[17] = system: ECHCG; test: Post-emergence action against ECHCG; format: in vivo, Echinochloa crus-galli; details: post-emergence, dosage 80 g/ha, visual assessment about 3 weeks after treatment vs untreated controls
Method: as §2

Structure (SMILES)	Pre-emergence action against STEME [1]	Pre-emergence action against AMARE (herbicidal activity) [2]	Pre-emergence action against ABUTH (herbicidal activity) [3]	Post-emergence action against AMARE (herbicidal action in percent) [5]	Post-emergence action against ABUTH (herbicidal action in percent) [6]	Post-emergence action against STEME [8]	Post-emergence action against PHBPU [10]	also measured
CCn1nnnc1NC(=O)c1ccc(Cl)c(C(=O)c2cccs2)c1Cl [2-282]	80%	80%	100%					
CC(=O)c1c(C(F)(F)F)ccc(C(=O)Nc2nnnn2C)c1C [1-14]								pest or weed control at 80 g/ha [4]: 80%; pest or weed control at 80 g/ha [5]: 80%; pest or weed control at 80 g/ha ([6]; Abutilon theophrasti, 504 h, read-out: Post-emergence action against ABUTH (herbicidal action in percent)): 90%; pest or weed control at 320 g/ha ([7]; Veronica persica, 504 h): 90%
CCCn1nnnc1NC(=O)c1ccc(C(F)(F)F)c(C(=O)C2CCCCC2)c1Cl [3-155]	100%	90%	100%	90%	80%	80		
CCn1nnnc1NC(=O)c1ccc(C(F)(F)F)c(C(=O)C(F)(F)F)c1Cl [2-162]	100%	90%	100%	90%		100	100	Post-emergence action against VIOTR [9]: 100; Pre-emergence action against VIOTR [11]: 100%
CCCn1nnnc1NC(=O)c1ccc(C(F)(F)F)c(C(=O)C(C)C)c1Cl [3-140]	100%	100%	100%	80%	100%	90	90	Post-emergence action against VIOTR [9]: 100; SETVI (Table B8, pre-emergence herbicidal activity) [12]: 90%; Pre-emergence action against VERPE [7]: 100%; Post-emergence action against MATIN (herbicidal action in percent) [13]: 90%; Pre-emergence action against VIOTR [11]: 100%; Pre-emergence action against ALOMY (herbicidal activity in percent) [14]: 90%; Pre-emergence action against ECHCG (herbicidal activity) [15]: 90%; Pre-emergence action against MATIN [16]: 100%; Post-emergence action against ECHCG (herbicidal action in percent) [17]: 100%
Cn1nnnc1NC(=O)c1ccc(Cl)c(C(=O)c2cccs2)c1Cl [1-282]								pest or weed control at 80 g/ha [5]: 80%; pest or weed control at 80 g/ha ([8]; Stellaria media, 504 h): 80%; pest or weed control at 320 g/ha ([2]; Amaranthus retroflexus, 504 h, read-out: Pre-emergence action against AMARE (herbicidal activity)): 80%; pest or weed control at 320 g/ha ([3]; Abutilon theophrasti, 504 h, read-out: Pre-emergence action against ABUTH (herbicidal activity)): 90%; pest or weed control at 320 g/ha ([16]; Tripleurospermum inodorum, 504 h): 80%
CCn1nnnc1NC(=O)c1ccc(Cl)c(C(=O)c2ccc(OC)cc2)c1Cl [2-283]	90%				80%			
CCCn1nnnc1NC(=O)c1ccc(C)c(C(=O)CC)c1Cl [3-135]	90%	90%		90%		100	90	Pre-emergence action against VERPE [7]: 80%; Post-emergence action against MATIN (herbicidal action in percent) [13]: 80%; Pre-emergence action against ALOMY (herbicidal activity in percent) [14]: 80%; Pre-emergence action against ECHCG (herbicidal activity) [15]: 90%; Pre-emergence action against MATIN [16]: 90%; Post-emergence action against ECHCG (herbicidal action in percent) [17]: 80%
CCCn1nnnc1NC(=O)c1ccc(C(F)(F)F)c(C(=O)c2cc(F)cc(F)c2)c1Cl [3-282]				80%	80%		90	Pre-emergence action against VIOTR [11]: 90%
COc1ccc(C(=O)c2c(Cl)ccc(C(=O)Nc3nnnn3C)c2Cl)cc1 [1-283]			90%			80		
CCn1nnnc1NC(=O)c1ccc(C(F)(F)F)c(C(=O)C2CCCC2)c1Cl [2-154]				100%	90%	90	90	
